Data set [1] in a line: Cytotoxicity against human 8505C cells measured after 96 hrs by SRB assay. The class given is functional, cell-based. (In SRB staining, fixed cells bind dye roughly in proportion to their protein.)
The nature of data set [2]: Cytotoxicity against human HT-29 cells measured after 96 hrs by SRB assay. The conditions noted are these: HT-29, 96 h. The class given is functional, cell-based.
A short description of data set [3]: Cytotoxicity against mouse NIH/3T3 cells measured after 96 hrs by SRB assay. The class given is toxicity, NIH3T3.
The nature of data set [4]: Cytotoxicity against human A549 cells measured after 96 hrs by SRB assay. The class given is functional, cell-based. The conditions noted are these: A549, 96 h.
Data set [5] is described as follows: Cytotoxicity against human 518A2 cells measured after 96 hrs by SRB assay. The conditions noted are these: 518A2, 96 h. The class given is functional, cell-based.
Data set [6] is described as follows: Cytotoxicity against human MCF7 cells measured after 96 hrs by SRB assay. The class given is functional, cell-based. The conditions noted are these: MCF7, 96 h.
Data set [7] in a line: Cytotoxicity against human A2780 cells measured after 96 hrs by SRB assay. The class given is functional, cell-based. The conditions noted are these: A2780, 96 h.
Data set [8] can be described thus: Cell cycle arrest in human A2780 cells assessed as sub-G1 peak appearance at 6 uM measured after 48 hrs by propidium iodide staining based FACS analysis. The class given is functional. In general terms: In flow cytometry, cells or beads pass a laser one at a time.
Data set [9] has as its system A2780. The data set is described as follows: Induction of apoptosis in human A2780 cells assessed as increase in apoptotic cells at 6 uM measured after 2 days by Annexin V/FITC/propidium iodide staining-based FACS analysis. The class given is functional, cell-based.
The nature of data set [10]: Cell cycle arrest in human A2780 cells assessed as loss of G2 peak at 6 uM measured after 24 hrs by propidium iodide staining based FACS analysis. The class given is functional.
Data set [11] is described as follows: Cell cycle arrest in human A2780 cells assessed as decrease in G1 peak at 6 uM measured after 24 hrs by propidium iodide staining based FACS analysis. The class given is functional.
Data set [12] deals with A2780. The data set is described as follows: Induction of apoptosis in human A2780 cells assessed as secondary necrotic cells at 6 uM measured after 2 days by Annexin V/FITC/propidium iodide staining-based FACS analysis. The class given is functional, cell-based.
Data set [13] in a line: Cell cycle arrest in human A2780 cells assessed as accumulation at S-phase at 6 uM measured after 24 hrs by propidium iodide staining based FACS analysis. The class given is functional.
Data set [14] in a line: Cell cycle arrest in human A2780 cells assessed as decrease in accumulation of cells at S-phase at 6 uM measured after 48 hrs by propidium iodide staining based FACS analysis. The class given is functional.
Data set [15] can be described thus: Solubility of compound in water. The conditions noted are these: buffer. The class given is physicochemical.

Activity calls are given as the source filed them. No cut-off for these calls is given here.

The record followed here is ChEMBL document CHEMBL3865812, “Selective killing of cancer cells with triterpenoic acid amides - The substantial role of an aromatic moiety alignment” (Eur J Med Chem, 2016).

The EC50 is the concentration that produces a half-maximal response. A low value points to an effect from little substance.

For the compound `C[C@H]1[C@H](C)CC[C@]2(C(=O)O)CC[C@]3(C)C(=CC[C@@H]4[C@@]5(C)C[C@H](O)[C@H](O)C(C)(C)[C@@H]5CC[C@]43C)[C@H]12`, the EC50 in data set [1] is > 30 µM; in data set [2], > 30 µM; in data set [4], > 30 µM; in [5], > 30 µM; in data set [6], 29.1 µM; in data set [7] it was 24.9 µM. The EC50 at 96 h in data set [3] is > 30 µM.
Turning to `CC(=O)O[C@H]1C[C@]2(C)[C@H]3CC=C4[C@@H]5CC(C)(C)CC[C@]5(C(=O)Nc5cccc6ncccc56)CC[C@@]4(C)[C@]3(C)CC[C@H]2C(C)(C)[C@H]1OC(C)=O`, the result in [8], in data set [9], in data set [10], in [11], in [12] and in data set [13] was Active. Further, the outcome in data set [14] was Active. Moreover, the EC50 in [1] came to 2.3 µM; in data set [2], 2.4 µM; in data set [4], 3 µM; in data set [5] it was 1.2 µM; in data set [6], 2.5 µM; in data set [7], 0.7 µM. For the same compound, in data set [3], the EC50 at 96 h stood at 8.6 µM.
For `CC(=O)O[C@H]1C[C@]2(C)[C@H]3CC=C4[C@@H]5[C@@H](C)[C@H](C)CC[C@]5(C(=O)Nc5cnc6ccccc6c5)CC[C@@]4(C)[C@]3(C)CC[C@H]2C(C)(C)[C@H]1OC(C)=O`, the EC50 in [1] worked out at 3.1 µM; in data set [2], 6.5 µM; in data set [4] it was 3.4 µM; in data set [5] it was 2.5 µM; in data set [6], 3.2 µM; in [7], 2.8 µM. Besides, in data set [15], the solubility entry is listed as “Insoluble”. Also, in data set [3], the EC50 at 96 h turned out to be 2.2 µM.
Turning to `CC(=O)O[C@H]1C[C@]2(C)[C@H]3CC=C4[C@@H]5[C@@H](C)[C@H](C)CC[C@]5(C(=O)Nc5ccncc5)CC[C@@]4(C)[C@]3(C)CC[C@H]2C(C)(C)[C@H]1OC(C)=O`, the EC50 in data set [1] is 8.5 µM; in [2], 9.4 µM; in [4], 10.1 µM; in data set [5], 8.3 µM; in data set [6] it was 9 µM; in [7], 8.3 µM. Besides, in [3], it took 5.7 µM to reach a half-maximal effect (EC50 at 96 h).
For the compound `CC(=O)O[C@H]1C[C@]2(C)[C@H]3CC=C4[C@@H]5[C@@H](C)[C@H](C)CC[C@]5(C(=O)Nc5ccc6ncccc6c5)CC[C@@]4(C)[C@]3(C)CC[C@H]2C(C)(C)[C@H]1OC(C)=O`, the EC50 in data set [1] came to 4.3 µM; in [2] it was 9.2 µM; in data set [4], 5.3 µM; in [5] it was 4.2 µM; in data set [6] it was 6.5 µM; in data set [7], 4.2 µM. Also, the solubility entry in data set [15] was “Insoluble”. Moreover, the EC50 at 96 h in data set [3] was 0.9 µM.
Consider `CC(=O)O[C@H]1C[C@]2(C)[C@H]3CC=C4[C@@H]5[C@@H](C)[C@H](C)CC[C@]5(C(=O)Nc5cccc6ncccc56)CC[C@@]4(C)[C@]3(C)CC[C@H]2C(C)(C)[C@H]1OC(C)=O`, for which the EC50 was determined as 3.2 µM in [1]; 3.6 µM in data set [2]; 3.7 µM in data set [4]; 2 µM in data set [5]; 5.5 µM in data set [6]; 2.7 µM in data set [7]. Further, the EC50 at 96 h in [3] is > 60 µM.
Take `CC(=O)O[C@H]1C[C@]2(C)[C@H]3CC=C4[C@@H]5CC(C)(C)CC[C@]5(C(=O)O)CC[C@@]4(C)[C@]3(C)CC[C@H]2C(C)(C)[C@H]1OC(C)=O`: the EC50 in data set [2] came out at 23.1 µM; in [5], 13.8 µM; in data set [6], 16.1 µM. In addition, the EC50 at 96 h in data set [3] was > 30 µM.
`CC(=O)O[C@H]1C[C@]2(C)[C@H]3CC=C4[C@@H]5CC(C)(C)CC[C@]5(C(=O)Nc5cccc6cccnc56)CC[C@@]4(C)[C@]3(C)CC[C@H]2C(C)(C)[C@H]1OC(C)=O`: the EC50 in data set [1] was 16.1 µM; in data set [2], > 30 µM; in data set [4], > 30 µM; in data set [5], 6.2 µM; in data set [6], 24.6 µM; in data set [7], 5.1 µM. The solubility entry in data set [15] is on record as “Insoluble”. Besides, the EC50 at 96 h in data set [3] is > 30 µM.
For `CC(=O)O[C@H]1C[C@]2(C)[C@H]3CC=C4[C@@H]5[C@@H](C)[C@H](C)CC[C@]5(C(=O)Nc5cccc6cccnc56)CC[C@@]4(C)[C@]3(C)CC[C@H]2C(C)(C)[C@H]1OC(C)=O`, the EC50 was > 30 µM in data set [1]; > 30 µM in [2]; > 30 µM in data set [4]; 13.3 µM in data set [5]; > 30 µM in data set [6]; 6.7 µM in data set [7]. For the same compound, the solubility entry in data set [15] is on record as “Insoluble”. Further, in [3], the EC50 at 96 h was > 30 µM.
As to `CC1(C)CC[C@]2(C(=O)O)CC[C@]3(C)C(=CC[C@@H]4[C@@]5(C)C[C@H](O)[C@H](O)C(C)(C)[C@@H]5CC[C@]43C)[C@@H]2C1` [AUGUSTIC ACID], the EC50 in data set [2] was > 30 µM; in data set [5], 25.7 µM; in data set [6], 25.1 µM. Further, the EC50 at 96 h in data set [3] was > 30 µM.
On to `CC(=O)O[C@H]1C[C@]2(C)[C@H]3CC=C4[C@@H]5[C@@H](C)[C@H](C)CC[C@]5(C(=O)O)CC[C@@]4(C)[C@]3(C)CC[C@H]2C(C)(C)[C@H]1OC(C)=O`, for which the EC50 in data set [1] is 15.6 µM; in data set [2] it was 16.2 µM; in data set [4], 15.6 µM; in data set [5] it was 17.9 µM; in data set [6] it was 10.4 µM; in data set [7] it was 17.9 µM. This compound also yielded an EC50 at 96 h in data set [3] of 12.7 µM.
As to `CC(=O)O[C@H]1C[C@]2(C)[C@H]3CC=C4[C@@H]5CC(C)(C)CC[C@]5(C(=O)Nc5ccc6cccnc6c5)CC[C@@]4(C)[C@]3(C)CC[C@H]2C(C)(C)[C@H]1OC(C)=O`, the EC50 amounted to 1.6 µM in data set [1]; 1.3 µM in data set [2]; 2.6 µM in [4]; 1.6 µM in [5]; 1.4 µM in data set [6]; 1 µM in [7]. Also, in data set [15], the solubility result was “Insoluble”. For the same compound, it took 0.7 µM to reach a half-maximal effect in [3] (EC50 at 96 h).
On to `CC(=O)O[C@H]1C[C@]2(C)[C@H]3CC=C4[C@@H]5[C@@H](C)[C@H](C)CC[C@]5(C(=O)Nc5ccc6cccnc6c5)CC[C@@]4(C)[C@]3(C)CC[C@H]2C(C)(C)[C@H]1OC(C)=O`, for which the EC50 worked out at 2.5 µM in data set [1]; 2 µM in [2]; 3.1 µM in data set [4]; 2.4 µM in data set [5]; 1.6 µM in [6]; 1.8 µM in [7]. For the same compound, the solubility entry in data set [15] is recorded as “Insoluble”. This compound also showed an EC50 at 96 h in [3] of 1.8 µM.
With `CC(=O)O[C@H]1C[C@]2(C)[C@H]3CC=C4[C@@H]5[C@@H](C)[C@H](C)CC[C@]5(C(=O)Nc5cccnc5)CC[C@@]4(C)[C@]3(C)CC[C@H]2C(C)(C)[C@H]1OC(C)=O`, the EC50 turned out to be 2.7 µM in data set [1]; 3.2 µM in data set [2]; 3.5 µM in [4]; 2 µM in data set [5]; 3.5 µM in data set [6]; 2 µM in data set [7]. In addition, the concentration giving a half-maximal response (EC50) at 96 h in data set [3] amounted to 4.2 µM.
`CC(=O)O[C@H]1C[C@]2(C)[C@H]3CC=C4[C@@H]5[C@@H](C)[C@H](C)CC[C@]5(C(=O)Nc5ccnc6ccccc56)CC[C@@]4(C)[C@]3(C)CC[C@H]2C(C)(C)[C@H]1OC(C)=O`: the EC50 in data set [1] is 6.6 µM; in [2], 5.5 µM; in data set [4], 8.2 µM; in data set [5] it was 6.4 µM; in data set [6], 4 µM; in data set [7] it was 3.5 µM. Also, in data set [15], the solubility result is “Insoluble”. This compound also returned an EC50 at 96 h in data set [3] of 5.2 µM.
As for `CC(=O)O[C@H]1C[C@]2(C)[C@H]3CC=C4[C@@H]5CC(C)(C)CC[C@]5(C(=O)Nc5cccnc5)CC[C@@]4(C)[C@]3(C)CC[C@H]2C(C)(C)[C@H]1OC(C)=O`, the EC50 in data set [1] is 2.3 µM; in data set [2] it was 2.2 µM; in [4] it was 2.8 µM; in data set [5] it was 1.7 µM; in [6] it was 2 µM; in [7], 0.9 µM. Also, a half-maximal effect in [3] (EC50 at 96 h) was put at 2.4 µM.
With `CC(=O)O[C@H]1CC[C@]2(C)[C@H]3CC=C4[C@@H]5[C@@H](C)[C@H](C)CC[C@]5(C(=O)Nc5cccc6ncccc56)CC[C@@]4(C)[C@]3(C)CC[C@H]2C1(C)C`, the EC50 in data set [1] came to 3.5 µM; in [2], 5.1 µM; in [4], 5.1 µM; in data set [5], 3.5 µM; in data set [6], 3.9 µM; in data set [7] it was 4.4 µM. In data set [3], this compound yielded an EC50 at 96 h of 3.5 µM.
As to `CC(=O)O[C@H]1C[C@]2(C)[C@H]3CC=C4[C@@H]5CC(C)(C)CC[C@]5(C(=O)Nc5ccncc5)CC[C@@]4(C)[C@]3(C)CC[C@H]2C(C)(C)[C@H]1OC(C)=O`, the EC50 in data set [1] is 4.1 µM; in [2] it was 2.7 µM; in [4], 4 µM; in [5], 4.2 µM; in data set [6], 3.1 µM; in data set [7] it was 1.6 µM. The compound also showed an EC50 at 96 h in data set [3] of 1.8 µM.
